Laboratory results from paper PMC9618103, “Exploratory toxicology studies of 2,3-substituted imidazo[1,2-a]pyridines with antiparasitic and anti-inflammatory properties” (Toxicology Research, 2022).

Legend:
NIH mice = experiment: Acute oral toxicity, median lethal dose (LD50); format: in vivo; settings: for Category (GHS acute oral toxicity hazard category) / Hazard statement (GHS): based on oral LD50, according to GHS [39]; for Oral LD50: female NIH mice, single oral dose, 14 days observation
Experimental: All treatments were administrated orally (p.o.) according to the scheme mentioned below.
Acute toxicity tests were performed in order to measure the median lethal dose (LD50). After acclimatization, mice were randomly allocated to ten groups (n = 4), including the control group (e.g. water, Tween 80, or PO) and the experimental groups, each with a single dose of one of the IMPYs at 4 levels of dose (0.5, 1.0, 2.0, and 4.0 g/kg b.w.).
Animals were food deprived overnight prior to administration of the chemical compounds or vehicles, and food was returned 4 h after dosing. Animals had access to water ad libitum throughout the study.[27]^,[28]

Wistar rats [1] = experiment: Subacute toxicity: serum and urine glucose, urinary protein excretion; format: in vivo; settings: for Filtered Load of Glucose / Fractional Excretion of Glucose / Serum Glucose / Urinary Glucose Excretion / Urinary Protein Excretion: rats, p.o., 14 days at 10% of LD50 (CCl4, APAP: once daily, 3 days), mean ± SEM, n = 6
Experimental: (§1) For toxicity tests, acclimatized rats were randomly allocated to 12 groups (n = 12 for the control and n = 6 for the rest groups). […] Meanwhile, the aforementioned vehicles (dose volume 2 mL/kg b.w.) were administered to 3 groups. […] The animals were then housed in individual metabolic cages to collect urine for a period of 6 h and then the volume was recorded. Afterward, blood samples were obtained and the serum was separated by centrifugation at 1,620 × g for 10 min at room temperature.
Serum and urine glucose concentration were calculated using GOD-PAP kits (RANDOX, Laboratories Ltd, UK). Urinary protein was quantified using the Bradford method.[29]
(§2) Serum and urinary creatinine were determined by the Jaffe method. With this value, evaluation was made of the fractional excretion of sodium (FES), fractional excretion of potassium (FEP), and fractional excretion of glucose.[30]^,[31] The GFR was calculated from clearance of endogenous creatinine using the conventional equation:where GFR (CCr) is the creatinine clearance rate (mL/min); UCr and SCr are the creatinine concentrations (mg/dL) in urine and serum, respectively; and φ is the urinary flow rate (UFR) (mL/min). To avoid the error from the tubular secretion of creatinine found in males, only female animals were used.
(§3) The levels of sodium and potassium were measured in urine and serum using a flame photometer (Corning 400, Medfield, United States). Calculation was made of the clearance, fractional excretion, and filtered load of sodium (FLS), filtered load of potassium (FLP), and filtered load of glucose (FLG) using the conventional equations:where CX is the clearance rate of X (mL/min), CCr is the creatinine clearance rate (mL/min), UX and SX are the […] concentrations of X, respectively, φ is the UFR (mL/min), FEX is the fractional excretion (%) of X, and FLX is the filtered load of X in μEq/min (Na^+ or K^+) or mg/min (glucose).

Wistar rats [2] = experiment: Subacute toxicity: glomerular filtration rate (creatinine clearance) and serum creatinine; format: in vivo; settings: for Glomerular Filtration Rate / Serum Creatinine: rats, p.o., 14 days at 10% of LD50 (CCl4, APAP: once daily, 3 days), mean ± SEM, n = 6
Experimental: as §1, §2

Wistar rats [3] = experiment: Subacute toxicity: water and electrolyte balance (osmolality, sodium, potassium, urinary flow); format: in vivo; settings: for Filtered Load of Potassium / Filtered Load of Sodium / Fractional Excretion of Potassium / Fractional Excretion of Sodium / Serum Osmolality / Serum Potassium / Serum Sodium / U/S Osm ratio / Urinary Flow Rate / Urinary Potassium Excretion / Urinary Sodium Excretion: rats, p.o., 14 days at 10% of LD50 (CCl4, APAP: once daily, 3 days), mean ± SEM, n = 6
Experimental: as §1
Osmolality of serum and urine were assessed (in triplicate) by using a vapor pressure osmometer (Wescor 5500, Logan, United States). U/S ratio as well as osmolar (COsm) and free water clearances were calculated via conventional equations:where UOsm and SOsm are the osmolality values (mOsm/Kg) in urine and serum, respectively, and φ is the UFR (mL/min).
as §3

Wistar rats [4] = experiment: Subacute toxicity: serum alanine aminotransferase and alkaline phosphatase activity; format: in vivo; settings: serum; rats, p.o., 14 days at 10% of LD50 (CCl4, APAP: once daily, 3 days); mean ± SEM, n = 6
Experimental: (§4) For toxicity tests, acclimatized rats were randomly allocated to 12 groups (n = 12 for the control and n = 6 for the rest groups). […] Meanwhile, the aforementioned vehicles (dose volume 2 mL/kg b.w.) were administered to 3 groups. […] Upon completion of the 14-day treatments and before sample collection, the bladders of animals were emptied by gentle pressure on the lower part of the abdomen to induce urination. The animals were then housed in individual metabolic cages to collect urine for a period of 6 h and then the volume was recorded. Afterward, blood samples were obtained and the serum was separated by centrifugation at 1,620 × g for 10 min at room temperature.
The activities of serum alanine aminotransferase (ALT) and alkaline phosphatase (ALP) were measured with standard kits (RANDOX, Laboratories Ltd, UK).

[5] = tested on: renal secretory pathway of organic anions; experiment: Active tubular secretion of organic acids (PAH uptake in kidney cortex slices); format: in vivo, rats; settings: for PAH t/m ratio: kidney cortex slices, PAH 1 mM, 1 h, 25 °C, rats, p.o., 14 days at 10% of LD50 (CCl4, APAP: once daily, 3 days), mean ± SEM, n = 6
Experimental: as §4
p-Aminohippuric acid (PAH) was used as an indicator of the renal secretory pathway of organic anions. Kidneys were extracted and immediately submerged in Ringer solution (pH = 7.4 and mOsm = 290 ± 10 mOsm/kg) under constant bubbling with O2/CO2 (95/5%). The kidneys were decapsulated and slices of the kidney cortex were obtained, which were then incubated in Ringer solution containing PAH (1 mM) for 1 h at 25 °C under constant bubbling with O2/CO2 (95/5%). The levels of PAH were quantified with the Bratton-Marshall method and results were expressed as the PAH tissue/medium ratio (PAH t/m ratio).[31]^,[32]

Wistar rats [6] = experiment: Hepatic and renal lipid peroxidation (lipid-soluble fluorescence); format: in vivo; settings: rats, p.o., 14 days at 10% of LD50 (CCl4, APAP: once daily, 3 days), mean ± SEM, n = 6; for Renal Lipoperoxidation: kidney; for Hepatic Lipoperoxidation: liver
Experimental: as §4
Lipid peroxidation (LPO) was evaluated by the formation of lipid-soluble fluorescence, as previously described. Briefly, kidney and liver tissues were homogenized in 3 and 5 mL of phosphate buffer (0.2 M, pH = 7.4), respectively. A volume of 1 mL (kidney) or 0.8 mL (liver) of the homogenates was added to 7 mL of chloroform-methanol (2:1, v/v), and after 15 s of vortex mixing, the resulting mixture was cooled using an ice bath for 30 min to allow for phase separation. The fluorescence of the organic phase was measured using a Shimadzu fluorometer (Japan; λex = 370 nm; λem = 430 nm), whose sensitivity was adjusted to 140 fluorescence units by using 1 μg/mL of quinine sulfate in 50 mM H2SO4. The results were expressed as relative fluorescence units per milligram of protein.[33]
(§5) The protein concentration in homogenates was measured by the Bradford method.[29]

Wistar rats [7] = experiment: Hepatic and renal reactive oxygen species (DCF formation); format: in vivo; settings: rats, p.o., 14 days at 10% of LD50 (CCl4, APAP: once daily, 3 days), mean ± SEM, n = 6; for Renal ROS: kidney; for Hepatic ROS: liver
Experimental: as §4
Reactive oxygen species (ROS) were measured by formation of 2′,7′-dichlorofluorescein (DCF). An aliquot of 10 μL (kidney) or 5 μL (liver) of the homogenates was added to 1,940 or 1,945 μL of TRIS:HEPES (18:1) and was incubated in the presence of 50 μL of 2′,7′-dichlorofluorescein diacetate for 1 h at 37 °C. In order to quench the reaction, the mixture was chilled using an ice bath. The fluorescence was measured using a Shimadzu fluorometer (Japan; λex = 488 nm; λem = 525 nm). The results were expressed as nM DCF formed per mg protein/h.[33]
as §5

[8] = in comparison to the control group

SMILES	Category (GHS acute oral toxicity hazard category) (NIH mice)	Hazard statement (GHS) (NIH mice)	Oral LD50 (NIH mice)	Filtered Load of Glucose (Wistar rats [1])	Fractional Excretion of Glucose (Wistar rats [1])	Serum Glucose (Wistar rats [1])	Urinary Glucose Excretion (Wistar rats [1])	Urinary Protein Excretion (Wistar rats [1])	Glomerular Filtration Rate (Wistar rats [2])	Serum Creatinine (Wistar rats [2])	Filtered Load of Potassium (Wistar rats [3])	Filtered Load of Sodium (Wistar rats [3])	Fractional Excretion of Potassium (Wistar rats [3])	Fractional Excretion of Sodium (Wistar rats [3])	Serum Osmolality (Wistar rats [3])	Serum Potassium (Wistar rats [3])	Serum Sodium (Wistar rats [3])	U/S Osm ratio (Wistar rats [3])	Urinary Flow Rate (Wistar rats [3])	Urinary Potassium Excretion (Wistar rats [3])	further results
CCOC(=O)c1nc2ccccn2c1[N+](=O)[O-] [Compound 1b, ethyl 3-nitroimidazo[1,2-a]pyridine-2-carboxylate]	5	May be harmful if swallowed	>4.000 g/kg b.w.	0.31 ± 0.04 mg/min	0.05 ± 3.9 E-3%	121.27 ± 7.88 mg/dL	141.87 ± 18.46 ng/min	0.57 ± 0.07 µg/min	0.25 ± 0.03 mL/min	1.38 ± 0.07 mg/dL	1.70 ± 0.21 µEq/min	39.31 ± 4.28 µEq/min	15.58 ± 3.10%	0.85 ± 0.09%	294.04 ± 0.88 mOsm/kg	6.74 ± 0.39 mEq/L	155.42 ± 3.63 mEq/L	2.54 ± 0.20	4.54 ± 0.76 µL/min	0.24 ± 0.03 µEq/min	FEG (fractional excretion of glucose), change in words (Wistar rats [1]; compared to control values): increased; FLG (filtered load of glucose), change in words (Wistar rats [1]; compared to control values): reduced; serum creatinine, change in words (Wistar rats [2]; compared with 1a and 3b): higher; GFR, change in words (Wistar rats [2]; [8]): lower; serum creatinine level, change in words (Wistar rats [2]; [8]): greater; FLS (filtered load of sodium), change in words (Wistar rats [3]; in comparison with the control group): decreased; Urinary Sodium Excretion (Wistar rats [3]): 0.34 ± 0.05 µEq/min; Alanine Aminotransferase (Wistar rats [4]): 30.10 ± 2.99 U/L; Alkaline Phosphatase (Wistar rats [4]): 101.41 ± 16.30 U/L; PAH t/m ratio [5]: 2.00 ± 0.13; Renal Lipoperoxidation (Wistar rats [6]): 0.38 ± 0.07 URF/mg protein; Hepatic Lipoperoxidation (Wistar rats [6]): 0.74 ± 0.07 URF/mg protein; Renal ROS (Wistar rats [7]): 227.17 ± 21.01 nM de DCF/mg protein/h; Hepatic ROS (Wistar rats [7]): 285.90 ± 37.33 nM de DCF/mg protein/h
N#Cc1cn2ccccc2n1 [Compound 2a, imidazo[1,2-a]pyridine-2-carbonitrile]	4	Harmful if swallowed	0.794 g/kg b.w.	0.90 ± 0.29 mg/min	0.02 ± 3.9E-3%	103.46 ± 3.16 mg/dL	136.89 ± 32.82 ng/min	0.65 ± 0.13 µg/min	0.86 ± 0.28 mL/min	0.66 ± 0.13 mg/dL	5.07 ± 1.44 µEq/min	124.49 ± 40.90 µEq/min	13.55 ± 1.23%	0.55 ± 0.13%	291.74 ± 1.34 mOsm/kg	6.03 ± 0.31 mEq/L	142.94 ± 3.88 mEq/L	3.30 ± 0.22	6.44 ± 1.39 µL/min	0.64 ± 0.16 µEq/min	Urinary Sodium Excretion (Wistar rats [3]): 0.51 ± 0.09 µEq/min; Alanine Aminotransferase (Wistar rats [4]): 42.68 ± 2.04 U/L; Alkaline Phosphatase (Wistar rats [4]): 104.44 ± 19.76 U/L; PAH t/m ratio [5]: 1.07 ± 0.11; PAH t/m ratio, change in words ([5]; versus control (2a also versus Tween 80 and 2b)): decreased; Renal Lipoperoxidation (Wistar rats [6]): 0.30 ± 0.02 URF/mg protein; Hepatic Lipoperoxidation (Wistar rats [6]): 0.71 ± 0.04 URF/mg protein; Renal ROS (Wistar rats [7]): 171.33 ± 22.04 nM de DCF/mg protein/h; Hepatic ROS (Wistar rats [7]): 285.53 ± 42.87 nM de DCF/mg protein/h
CCOC(=O)c1cn2ccccc2n1 [Compound 1a, ethyl imidazo[1,2-a]pyridine-2-carboxylate]	5	May be harmful if swallowed	3.175 g/kg b.w.	0.39 ± 0.17 mg/min	0.04 ± 0.01%	112.39 ± 4.92 mg/dL	96.54 ± 29.03 ng/min	0.56 ± 0.10 µg/min	0.34 ± 0.14 mL/min	0.80 ± 0.14 mg/dL	2.69 ± 1.19 µEq/min	64.29 ± 26.43 µEq/min	22.26 ± 6.39%	0.74 ± 0.22%	293.75 ± 1.88 mOsm/kg	6.57 ± 0.32 mEq/L	162.39 ± 5.03 mEq/L	3.02 ± 0.25	4.17 ± 1.25 µL/min	0.34 ± 0.06 µEq/min	FLG (filtered load of glucose), change in words (Wistar rats [1]; compared to control values): reduced; GFR, change in words (Wistar rats [2]; [8]): lower; Urinary Sodium Excretion (Wistar rats [3]): 0.29 ± 0.08 µEq/min; Alanine Aminotransferase (Wistar rats [4]): 22.22 ± 1.69 U/L; Alkaline Phosphatase (Wistar rats [4]): 93.14 ± 11.91 U/L; PAH t/m ratio [5]: 2.51 ± 0.13; Renal Lipoperoxidation (Wistar rats [6]): 0.28 ± 0.03 URF/mg protein; Hepatic Lipoperoxidation (Wistar rats [6]): 0.75 ± 0.04 URF/mg protein; Renal ROS (Wistar rats [7]): 161.18 ± 27.84 nM de DCF/mg protein/h; Hepatic ROS (Wistar rats [7]): 317.94 ± 25.65 nM de DCF/mg protein/h
